One test has as its target T1, human alpha2A receptors (Homo sapiens, UniProt P08913).
T1 sequence (P08913 1-465): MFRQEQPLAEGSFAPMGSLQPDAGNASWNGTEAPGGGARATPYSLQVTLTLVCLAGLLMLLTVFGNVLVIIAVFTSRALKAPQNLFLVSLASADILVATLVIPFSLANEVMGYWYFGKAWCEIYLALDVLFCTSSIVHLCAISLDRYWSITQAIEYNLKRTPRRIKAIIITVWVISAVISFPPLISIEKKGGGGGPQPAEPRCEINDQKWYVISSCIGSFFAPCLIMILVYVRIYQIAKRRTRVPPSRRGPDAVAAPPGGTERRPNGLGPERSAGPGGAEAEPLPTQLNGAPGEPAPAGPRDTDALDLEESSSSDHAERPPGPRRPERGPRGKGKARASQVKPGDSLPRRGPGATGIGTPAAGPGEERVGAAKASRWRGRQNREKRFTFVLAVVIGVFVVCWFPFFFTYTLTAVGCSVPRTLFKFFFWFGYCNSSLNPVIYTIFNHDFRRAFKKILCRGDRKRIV
The test can be described thus: cell-based.

The target of a further test is T2, human alpha2C receptors (Homo sapiens, UniProt P18825).
T2 sequence (P18825 1-462): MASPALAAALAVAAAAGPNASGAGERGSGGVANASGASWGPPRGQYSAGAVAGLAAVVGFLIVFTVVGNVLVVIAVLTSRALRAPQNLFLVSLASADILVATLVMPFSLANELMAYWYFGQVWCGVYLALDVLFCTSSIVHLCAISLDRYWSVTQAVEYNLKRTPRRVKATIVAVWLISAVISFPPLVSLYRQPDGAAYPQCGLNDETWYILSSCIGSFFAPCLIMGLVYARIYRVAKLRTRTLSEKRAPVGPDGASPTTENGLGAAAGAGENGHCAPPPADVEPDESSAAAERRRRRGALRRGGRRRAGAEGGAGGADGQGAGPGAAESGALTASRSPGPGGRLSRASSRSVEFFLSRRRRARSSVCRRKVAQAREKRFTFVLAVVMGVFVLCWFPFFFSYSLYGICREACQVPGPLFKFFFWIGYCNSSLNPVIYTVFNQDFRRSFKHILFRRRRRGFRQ
Description: Determination of alpha2C antagonistic activity in vitro (FLIPR calcium assay). The note with it: for Kb: Alpha 2C Adrenaline Kb, Kb calculated from IC50 with the Cheng-Prusoff equation, adrenaline as agonist, CHO cells, human alpha2C.

Structures can show the parent of a compound that is named as a salt.

Consider `CN1CCN([C@H]2CCCN(C[C@H]3COc4ccccc4O3)C2)C1=O` [example 101, 1-((S)-1-(((S)-2,3-Dihydrobenzo[b][1,4]dioxin-2-yl)methyl)piperidin-3-yl)-3-methylimidazolidin-2-one], for which, on human alpha2A receptors, the IC50 is > 10000 nM and the Kb is > 449 nM. Besides, at human alpha2C receptors, the IC50 worked out at 0.78 nM and the Kb is 0.08 nM.
The like results for `O=C1[C@H]2CCCC[C@H]2C(=O)N1[C@H]1CCCN(C[C@H]2COc3ccccc3O2)C1` [example 93, (3aR,7aS)-2-((S)-1-(((S)-2,3-Dihydrobenzo[b][1,4]dioxin-2-yl)methyl)piperidin-3-yl)hexahydro-1H-isoindole-1,3(2H)-dione hydrochloride] were, in that order, > 10000 nM, > 449 nM, 0.091 nM and 0.009 nM.
The like results for `CN1CC(=O)N([C@H]2CCCN(C[C@H]3COc4ccccc4O3)C2)C1=O` [example 103, 3-((S)-1-(((S)-2,3-Dihydrobenzo[b][1,4]dioxin-2-yl)methyl)piperidin-3-yl)-1-methylimidazolidine-2,4-dione] were, in that order, > 10000 nM, > 449 nM, 3.17 nM and 0.32 nM.
The corresponding values for `CN1C(=O)N([C@H]2CCCN(C[C@H]3COc4ccccc4O3)C2)C(=O)C1(C)C` [example 111, 3-((S)-1-(((S)-2,3-Dihydrobenzo[b][1,4]dioxin-2-yl)methyl)-piperidin-3-yl)-1,5,5-trimethylimidazolidine-2,4-dione] are > 10000 nM, > 449 nM, 0.87 nM and 0.09 nM.
With `Cc1nc2cnccc2n1[C@H]1CCCN(C[C@H]2COc3ccccc3O2)C1` [example 158, 1-((S)-1-(((S)-2,3-Dihydrobenzo[b][1,4]dioxin-2-yl)methyl)piperidin-3-yl)-2-methyl-1H-imidazo[4,5-c]pyridine], the IC50 on human alpha2A receptors was > 10000 nM; on human alpha2C receptors, 3.43 nM. The Kb on human alpha2A receptors is > 449 nM; at human alpha2C receptors, 0.346 nM.
On human alpha2A receptors, `O=C1CC(c2ccccc2)CN1[C@H]1CCCN(C[C@H]2COc3ccccc3O2)C1` (stereo partly drawn) [example 32, 1-((S)-1-(((S)-2,3-Dihydrobenzo[b][1,4]dioxin-2-yl)methyl)piperidin-3-yl)-4-phenylpyrrolidin-2-one] yielded an IC50 of 5210 nM and a Kb of 234 nM. At human alpha2C receptors, the IC50 was < 0.01 nM and the Kb was < 0.001 nM.
The like results for `O=C1c2ncsc2CN1[C@H]1CCCN(C[C@H]2COc3ccccc3O2)C1` [example 13, 5-((S)-1-(((S)-2,3-Dihydrobenzo[b][1,4]dioxin-2-yl)methyl)piperidin-3-yl)-5,6-dihydro-4H-pyrrolo[3,4-d]thiazol-4-one] were, in that order, > 10000 nM, > 449 nM, 22.4 nM and 2.26 nM.
For `CC(C)N1C(=O)C(=O)N([C@H]2CCCN(C[C@H]3COc4ccccc4O3)C2)C1=O` [example 130, 1-((S)-1-(((S)-2,3-Dihydrobenzo[b][1,4]dioxin-2-yl)methyl)-piperidin-3-yl)-3-isopropylimidazolidine-2,4,5-trione], the values for the IC50 on human alpha2A receptors and at human alpha2C receptors were 6590 nM and 0.256 nM, respectively. For the same compound, the Kb on human alpha2A receptors is 296 nM; at human alpha2C receptors, 0.028 nM.
Consider `O=C1C=C(c2ccccc2)CN1[C@H]1CCCN(C[C@H]2COc3ccccc3O2)C1` [example 39, 1-((S)-1-(((S)-2,3-Dihydrobenzo[b][1,4]dioxin-2-yl)methyl)piperidin-3-yl)-4-phenyl-1H-pyrrol-2(5H)-one], for which the results for the IC50 against human alpha2A receptors and on human alpha2C receptors were > 10000 nM and 1.79 nM, respectively. The results for the Kb at human alpha2A receptors and at human alpha2C receptors were > 449 nM and 0.181 nM, respectively.
The corresponding values for `COc1cc2c(cc1OC)C(=O)N([C@H]1CCCN(C[C@H]3COc4ccccc4O3)C1)C2` [example 68, 2-((S)-1-(((S)-2,3-Dihydrobenzo[b][1,4]dioxin-2-yl)methyl)piperidin-3-yl)-5,6-dimethoxyisoindolin-1-one] are > 10000 nM, 2.79 nM, > 449 nM and 0.282 nM.
With `O=C1C2CC2C(=O)N1[C@H]1CCCN(C[C@H]2COc3ccccc3O2)C1` (stereo partly drawn) [example 95, 3-((S)-1-(((S)-2,3-Dihydrobenzo[b][1,4]dioxin-2-yl)methyl)piperidin-3-yl)-3-azabicyclo[3.1.0]hexane-2,4-dione], the IC50 stood at 9440 nM on human alpha2A receptors and 0.433 nM on human alpha2C receptors. Also, the Kb at human alpha2A receptors is 424 nM; on human alpha2C receptors, 0.044 nM.
Take `O=C1C2CCCC2C(=O)N1[C@H]1CCCN(C[C@H]2COc3ccccc3O2)C1` (stereo partly drawn) [example 92, 2-((S)-1-(((S)-2,3-Dihydrobenzo[b][1,4]dioxin-2-yl)methyl)piperidin-3-yl)tetrahydrocyclopenta[c]pyrrole-1,3(2H,3aH)-dione hydrochloride]: on human alpha2A receptors, the IC50 was > 10000 nM and the Kb was > 449 nM. At human alpha2C receptors, the IC50 was 0.15 nM and the Kb was 0.02 nM.
The like results for `CC(C)c1nc2ccc(F)cc2n1[C@H]1CCCN(C[C@H]2COc3ccccc3O2)C1` [example 85, 1-((S)-1-(((S)-2,3-Dihydrobenzo[b][1,4]dioxin-2-yl)methyl)piperidin-3-yl)-6-fluoro-2-isopropyl-1H-benzo[d]imidazole] were, in that order, > 10000 nM, > 449 nM, 1260 nM and 127 nM.
The corresponding values for `Cc1nc2c(F)cc(F)cc2n1[C@H]1CCCN(C[C@H]2COc3ccccc3O2)C1` [example 27, 1-((S)-1-(((S)-2,3-Dihydrobenzo[b][1,4]dioxin-2-yl)methyl)piperidin-3-yl)-4,6-difluoro-2-methyl-1H-benzo[d]imidazole] are > 10000 nM, > 449 nM, 20.8 nM and 2.09 nM.
Turning to `COc1cccc2c1CN([C@H]1CCCN(C[C@H]3COc4ccccc4O3)C1)C2=O` [example 55, 2-((S)-1-(((S)-2,3-Dihydrobenzo[b][1,4]dioxin-2-yl)methyl)piperidin-3-yl)-4-methoxyisoindolin-1-one], at human alpha2A receptors, the IC50 was > 10000 nM and the Kb was > 449 nM. Moreover, at human alpha2C receptors, the IC50 was 0.029 nM and the Kb is 0.003 nM.
With `O=C1c2ccc(F)c(F)c2CN1[C@H]1CCCN(C[C@H]2COc3ccccc3O2)C1` [example 56, 2-((S)-1-(((S)-2,3-Dihydrobenzo[b][1,4]dioxin-2-yl)methyl)piperidin-3-yl)-4,5-difluoroisoindolin-1-one hydrochloride], at human alpha2A receptors, the IC50 was > 10000 nM and the Kb is > 449 nM. Moreover, on human alpha2C receptors, the half-inhibitory concentration (IC50) is 0.519 nM and the Kb was 0.052 nM.
The like results for `O=C1C(=O)N([C@H]2CCCN(C[C@H]3COc4ccccc4O3)C2)C(=O)N1c1ccccc1` [example 129, 1-((S)-1-(((S)-2,3-Dihydrobenzo[b][1,4]dioxin-2-yl)methyl)-piperidin-3-yl)-3-phenylimidazolidine-2,4,5-trione] were, in that order, > 10000 nM, > 449 nM, 1.58 nM and 0.162 nM.
The corresponding values for `O=C1C2=C(CCCC2)C(=O)N1[C@H]1CCCN(C[C@H]2COc3ccccc3O2)C1` [example 94, 2-((S)-1-(((S)-2,3-Dihydrobenzo[b][1,4]dioxin-2-yl)methyl)-piperidin-3-yl)-4,5,6,7-tetrahydro-1H-isoindole-1,3(2H)-dione hydrochloride] are > 10000 nM, > 449 nM, < 0.1 nM and < 0.01 nM.
For the compound `O=C1C(=O)N([C@H]2CCCN(C[C@H]3COc4ccccc4O3)C2)CC1c1ccccc1` (stereo partly drawn) [example 38, 1-((S)-1-(((S)-2,3-Dihydrobenzo[b][1,4]dioxin-2-yl)methyl)piperidin-3-yl)-4-phenylpyrrolidine-2,3-dione], at human alpha2A receptors, the IC50 was > 10000 nM and the Kb was > 449 nM. Moreover, on human alpha2C receptors, the IC50 is 1.54 nM and the Kb is 0.153 nM.
The like results for `Cc1nc2ccc(F)cc2n1[C@H]1CCCN(C[C@H]2COc3ccccc3O2)C1` [example 83, 1-((S)-1-(((S)-2,3-Dihydrobenzo[b][1,4]dioxin-2-yl)methyl)piperidin-3-yl)-6-fluoro-2-methyl-1H-benzo[d]imidazole] were, in that order, > 10000 nM, > 449 nM, < 0.1 nM and < 0.01 nM.

By IC50 is commonly meant the concentration that gives 50% inhibition.

The values are drawn from patent publication US20190152992A1, “BENZODIOXANE DERIVATIVES AND THEIR PHARMACEUTICAL USE” (Orion Corporation, priority 2016, published 2019).
